Patent US20080153760A1, “Haircare Use Of C-Glycoside Derivatives” (L'OREAL, priority 2005, published 2008)

Assay: Degree of premature breaking of hair, tensile test
Settings: parameter R; natural African hair immersed three days at 40° C. in composition of 5% by weight compound and 95% water, no final rinsing; hairs 30 mm, pulled at 10 mm/minute; untreated control 0.27
Experimental: The hair used for the following tests was regulated beforehand in a glove box at 25° C. and 45% relative humidity for about 24 hours. This was natural curly African hair.
The four abovementioned compounds were respectively formulated in the form of a composition comprising 5% by weight of the compound under consideration and 95% by weight of water relative to the total weight of the composition.
Four batches of natural African hair were treated, respectively, with each of the four compositions according to the following protocol: the hair is immersed for three days at 40° C. in the composition under consideration, without final rinsing, and its degree of premature breaking is then assessed by comparison with that of a batch of untreated natural control hair.
The degree of premature breaking of the hair is characterized by the following parameter R:
R=1−(number of hairs showing breakage under tension in the hardening zone/N),
N being the total number of hairs tested.
The corresponding mechanical tests are performed using a Zwicko tensile testing machine on hairs 30 mm long. The hairs were pulled at a speed of 10 mm/minute.

| Structure (SMILES) | Degree of premature breaking |
| --- | --- |
| CC(=O)C[C@@H]1O[C@H](CO)[C@@H](O)[C@H](O)[C@H]1O [Compound 4, C-β-D-glucopyranoside-n-propan-2-one] | 0.23 |
| CC(=O)C[C@@H]1OC[C@@H](O)[C@H](O)[C@H]1O [Compound 2, C-β-D-Xylopyranoside-n-propan-2-one] | 0.20 |
| CC(O)C[C@@H]1OC[C@@H](O)[C@H](O)[C@H]1O (stereo partly drawn) [Compound 1, C-β-D-xylopyranoside-2-hydroxypropane] | 0.17 |
| CC(=O)C[C@@H]1O[C@H](CO)[C@@H](O[C@@H]2O[C@H](CO)[C@H](O)[C@H](O)[C@H]2O)[C@H](O)[C@H]1O [Compound 3, C-β-D-Lactopyranoside-n-propan-2-one] | 0.13 |
